{"source": "ChEMBL document CHEMBL4507278", "about": "(2021)", "key": {"[1]": {"biological_target": "5-hydroxytryptamine receptor 2C (Homo sapiens) (UniProt P28335)", "sequence (P28335 whole entry)": "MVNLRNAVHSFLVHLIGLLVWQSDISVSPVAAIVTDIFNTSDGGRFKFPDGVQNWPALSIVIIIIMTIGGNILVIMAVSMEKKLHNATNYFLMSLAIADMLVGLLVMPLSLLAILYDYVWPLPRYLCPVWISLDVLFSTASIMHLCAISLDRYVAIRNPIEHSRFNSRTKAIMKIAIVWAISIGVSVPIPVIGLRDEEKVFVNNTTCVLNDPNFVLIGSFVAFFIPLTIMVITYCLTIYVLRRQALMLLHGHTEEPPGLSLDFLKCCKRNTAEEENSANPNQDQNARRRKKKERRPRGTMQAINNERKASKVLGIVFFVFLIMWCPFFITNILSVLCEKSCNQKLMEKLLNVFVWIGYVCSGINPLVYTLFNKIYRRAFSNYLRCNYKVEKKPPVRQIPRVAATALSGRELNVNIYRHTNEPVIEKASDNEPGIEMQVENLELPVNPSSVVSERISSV", "details": "Compound concentration 10.0 uM; call rule not given here"}, "[2]": {"biological_target": "Homeodomain-interacting protein kinase 1 (Homo sapiens) (UniProt Q86Z02)", "sequence (Q86Z02 whole entry, looked up)": "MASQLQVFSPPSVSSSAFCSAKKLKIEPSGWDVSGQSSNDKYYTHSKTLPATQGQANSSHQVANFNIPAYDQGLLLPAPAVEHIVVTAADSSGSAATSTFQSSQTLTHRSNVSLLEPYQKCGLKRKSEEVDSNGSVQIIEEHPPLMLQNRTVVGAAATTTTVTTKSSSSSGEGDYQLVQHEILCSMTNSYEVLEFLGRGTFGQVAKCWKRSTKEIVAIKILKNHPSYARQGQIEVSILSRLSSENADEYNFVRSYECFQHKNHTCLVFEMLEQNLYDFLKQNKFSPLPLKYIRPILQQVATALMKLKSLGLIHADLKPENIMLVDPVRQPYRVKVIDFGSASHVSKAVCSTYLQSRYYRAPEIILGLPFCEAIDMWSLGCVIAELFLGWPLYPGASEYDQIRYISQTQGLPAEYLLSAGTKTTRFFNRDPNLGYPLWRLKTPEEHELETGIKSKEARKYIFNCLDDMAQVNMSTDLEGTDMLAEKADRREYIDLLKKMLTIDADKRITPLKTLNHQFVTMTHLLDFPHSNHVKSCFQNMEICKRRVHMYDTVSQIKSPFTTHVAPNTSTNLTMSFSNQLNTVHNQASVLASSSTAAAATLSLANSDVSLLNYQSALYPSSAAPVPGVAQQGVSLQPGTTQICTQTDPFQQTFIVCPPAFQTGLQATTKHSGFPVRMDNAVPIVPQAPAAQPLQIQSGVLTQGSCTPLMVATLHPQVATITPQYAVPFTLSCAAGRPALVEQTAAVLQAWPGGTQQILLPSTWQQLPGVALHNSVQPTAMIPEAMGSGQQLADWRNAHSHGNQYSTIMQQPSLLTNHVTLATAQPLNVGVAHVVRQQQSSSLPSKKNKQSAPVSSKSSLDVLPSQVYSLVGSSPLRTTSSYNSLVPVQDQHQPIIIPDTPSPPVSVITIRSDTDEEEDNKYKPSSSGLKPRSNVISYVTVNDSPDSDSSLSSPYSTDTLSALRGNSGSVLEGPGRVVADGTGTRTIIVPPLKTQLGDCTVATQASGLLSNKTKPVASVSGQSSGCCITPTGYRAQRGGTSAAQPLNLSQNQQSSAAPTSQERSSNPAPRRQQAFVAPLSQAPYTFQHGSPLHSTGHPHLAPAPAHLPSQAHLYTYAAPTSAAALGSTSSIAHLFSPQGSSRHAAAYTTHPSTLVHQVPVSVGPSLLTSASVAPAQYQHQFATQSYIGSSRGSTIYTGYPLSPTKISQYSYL", "details": "Compound concentration 1000.0 nM"}, "[3]": {"biological_target": "C-C chemokine receptor type 1 (Homo sapiens, UniProt P32246)", "assay": "Ca flux"}, "[4]": {"biological_target": "Serine/threonine-protein kinase/endoribonuclease IRE1 (Homo sapiens) (UniProt O75460)", "details": "Compound concentration 1000.0 nM"}, "[5]": {"biological_target": "Nicotinic acetylcholine receptor alpha-1/beta-1 (Homo sapiens) (UniProt P02708+P11230)", "assay": "NACH_BS_N/H Eurofins-Panlabs selectivity data (BI)", "format": "protein-complex assay", "details": "Compound concentration 10.0 uM"}, "[6]": {"biological_target": "5-hydroxytryptamine receptor 2B (Homo sapiens) (UniProt P41595)", "sequence (P41595 whole entry)": "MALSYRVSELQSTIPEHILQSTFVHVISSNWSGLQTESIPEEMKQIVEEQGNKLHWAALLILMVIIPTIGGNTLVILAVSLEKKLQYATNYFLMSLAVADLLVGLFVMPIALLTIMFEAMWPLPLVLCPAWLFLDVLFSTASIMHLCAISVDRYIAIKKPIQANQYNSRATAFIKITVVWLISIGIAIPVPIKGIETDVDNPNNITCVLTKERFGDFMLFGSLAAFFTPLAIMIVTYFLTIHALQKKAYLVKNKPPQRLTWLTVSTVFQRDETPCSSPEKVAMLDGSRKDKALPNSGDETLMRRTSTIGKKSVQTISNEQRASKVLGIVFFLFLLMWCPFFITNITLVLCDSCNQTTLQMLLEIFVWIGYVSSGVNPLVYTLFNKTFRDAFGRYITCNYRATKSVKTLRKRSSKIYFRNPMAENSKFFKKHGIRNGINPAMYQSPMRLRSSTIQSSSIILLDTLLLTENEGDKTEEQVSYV", "assay": "5HT2B/HU Eurofins-Panlabs selectivity data (BI)", "details": "Compound concentration 10.0 uM"}, "[7]": {"biological_target": "Beta-1 adrenergic receptor (Homo sapiens, UniProt P08588)", "sequence (P08588 whole entry)": "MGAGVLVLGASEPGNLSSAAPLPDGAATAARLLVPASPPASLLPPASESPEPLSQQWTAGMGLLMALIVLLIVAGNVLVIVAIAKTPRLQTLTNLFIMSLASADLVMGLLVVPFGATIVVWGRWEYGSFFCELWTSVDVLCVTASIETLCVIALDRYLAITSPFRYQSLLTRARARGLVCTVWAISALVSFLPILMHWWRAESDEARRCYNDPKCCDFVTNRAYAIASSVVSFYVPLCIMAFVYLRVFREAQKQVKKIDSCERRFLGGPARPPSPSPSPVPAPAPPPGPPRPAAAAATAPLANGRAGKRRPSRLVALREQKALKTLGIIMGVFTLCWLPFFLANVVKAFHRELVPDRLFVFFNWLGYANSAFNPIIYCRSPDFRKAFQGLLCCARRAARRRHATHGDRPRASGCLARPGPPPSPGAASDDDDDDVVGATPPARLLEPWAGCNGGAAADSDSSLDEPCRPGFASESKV", "assay": "GPCRScan assay: inhibition of Beta1", "design": "radioligand conc. used [nm] 0.1 – 0.2, parental cells CHO Flp-In"}, "[8]": {"biological_target": "Gamma-aminobutyric acid receptor subunit alpha-1 (Rattus norvegicus) (UniProt P62813)", "assay": "GABAA MUSCIMOL CENT Eurofins-Panlabs selectivity data (BI)", "details": "Compound concentration 10.0 uM"}, "[9]": {"biological_target": "Glutamate receptor ionotropic, NMDA 1 (Rattus norvegicus) (UniProt P35439)", "assay": "NMDAGLSI/RA Eurofins-Panlabs selectivity data (BI)", "details": "Compound concentration 10.0 uM"}, "[10]": {"biological_target": "Sodium channel regulatory subunit beta-1 (Rattus norvegicus) (UniProt Q00954)", "sequence (Q00954 whole entry)": "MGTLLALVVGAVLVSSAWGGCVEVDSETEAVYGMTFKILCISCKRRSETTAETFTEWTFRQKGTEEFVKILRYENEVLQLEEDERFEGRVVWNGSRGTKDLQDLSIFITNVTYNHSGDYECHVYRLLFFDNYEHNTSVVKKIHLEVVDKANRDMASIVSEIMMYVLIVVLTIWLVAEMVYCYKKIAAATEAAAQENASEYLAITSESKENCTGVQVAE", "assay": "NA+/SITE2/RA Eurofins-Panlabs selectivity data (BI)", "details": "Compound concentration 10.0 uM"}, "[11]": {"biological_target": "Platelet-activating factor receptor (Homo sapiens) (UniProt P25105)", "sequence (P25105 whole entry)": "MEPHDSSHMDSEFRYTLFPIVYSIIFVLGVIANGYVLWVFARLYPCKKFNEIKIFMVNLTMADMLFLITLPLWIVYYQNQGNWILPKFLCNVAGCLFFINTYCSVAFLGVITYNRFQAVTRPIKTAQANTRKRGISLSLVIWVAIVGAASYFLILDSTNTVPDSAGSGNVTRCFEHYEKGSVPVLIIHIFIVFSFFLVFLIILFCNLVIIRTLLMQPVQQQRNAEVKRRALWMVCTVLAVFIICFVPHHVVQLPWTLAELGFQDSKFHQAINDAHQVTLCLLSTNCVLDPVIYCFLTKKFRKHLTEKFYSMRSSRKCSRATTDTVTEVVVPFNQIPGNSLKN", "assay": "PAF/H Eurofins-Panlabs selectivity data (BI)", "details": "Compound concentration 10.0 uM"}, "[12]": {"biological_target": "Epidermal growth factor receptor (Homo sapiens) (UniProt P00533)", "sequence (P00533 whole entry)": "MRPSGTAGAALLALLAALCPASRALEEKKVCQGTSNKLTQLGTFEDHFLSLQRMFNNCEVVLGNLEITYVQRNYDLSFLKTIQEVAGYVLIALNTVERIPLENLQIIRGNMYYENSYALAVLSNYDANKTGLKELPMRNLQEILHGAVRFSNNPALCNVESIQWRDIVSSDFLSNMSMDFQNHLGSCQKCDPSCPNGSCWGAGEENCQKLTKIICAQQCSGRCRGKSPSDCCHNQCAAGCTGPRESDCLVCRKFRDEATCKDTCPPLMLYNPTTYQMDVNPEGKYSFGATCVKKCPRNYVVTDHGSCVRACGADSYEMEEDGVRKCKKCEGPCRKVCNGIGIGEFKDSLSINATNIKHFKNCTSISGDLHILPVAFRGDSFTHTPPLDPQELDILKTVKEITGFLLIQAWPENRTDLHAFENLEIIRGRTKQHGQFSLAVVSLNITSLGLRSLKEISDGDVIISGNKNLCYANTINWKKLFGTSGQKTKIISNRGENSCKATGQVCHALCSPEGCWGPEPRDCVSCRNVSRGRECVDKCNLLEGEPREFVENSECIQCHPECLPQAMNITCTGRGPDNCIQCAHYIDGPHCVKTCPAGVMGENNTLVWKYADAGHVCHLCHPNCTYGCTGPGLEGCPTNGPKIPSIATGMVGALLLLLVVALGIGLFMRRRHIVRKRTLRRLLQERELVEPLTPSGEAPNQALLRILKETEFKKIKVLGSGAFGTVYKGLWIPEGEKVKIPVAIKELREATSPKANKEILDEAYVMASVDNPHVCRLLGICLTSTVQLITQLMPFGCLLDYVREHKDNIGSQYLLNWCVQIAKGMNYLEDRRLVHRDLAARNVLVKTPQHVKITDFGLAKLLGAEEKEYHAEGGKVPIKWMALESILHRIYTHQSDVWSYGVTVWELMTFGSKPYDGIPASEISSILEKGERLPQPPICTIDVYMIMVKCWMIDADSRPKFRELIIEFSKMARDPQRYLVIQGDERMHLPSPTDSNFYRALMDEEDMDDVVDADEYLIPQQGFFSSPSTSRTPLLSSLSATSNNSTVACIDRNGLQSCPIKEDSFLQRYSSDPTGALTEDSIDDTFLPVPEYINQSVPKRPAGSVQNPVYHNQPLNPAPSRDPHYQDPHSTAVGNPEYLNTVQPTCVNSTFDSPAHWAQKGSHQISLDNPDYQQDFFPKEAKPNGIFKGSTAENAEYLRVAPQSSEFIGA", "assay": "EGF/HU Eurofins-Panlabs selectivity data (BI)", "details": "Compound concentration 10.0 uM"}, "[13]": {"biological_target": "Glutamate NMDA receptor (Rattus norvegicus) (UniProt P35439+Q00959+Q00960+Q00961+Q62645+Q8VHN2+Q9R1M7)", "assay": "NMDAAGSI/RA Eurofins-Panlabs selectivity data (BI)", "format": "protein-complex assay", "details": "filed as agonist, Compound concentration 10.0 uM"}, "[14]": {"biological_target": "Histamine H1 receptor (Homo sapiens) (UniProt P35367)", "assay": "H1/H Eurofins-Panlabs selectivity data (BI)", "details": "Compound concentration 10.0 uM"}, "[15]": {"biological_target": "Muscarinic acetylcholine receptor M2 (Homo sapiens) (UniProt P08172)", "assay": "M2/HU Eurofins-Panlabs selectivity data (BI)", "details": "Compound concentration 10.0 uM"}, "[16]": {"biological_target": "Voltage-dependent L-type calcium channel subunit alpha-1C (DHP site) (Rattus norvegicus, UniProt P22002)", "assay": "CA+/DHPSI/RA Eurofins-Panlabs selectivity data (BI)", "details": "compound concentration 10 uM, read-out: % Ctrl"}, "[17]": {"biological_target": "T1, C-C chemokine receptor type 1 (Homo sapiens) (UniProt P32246)", "T1 sequence (whole entry)": "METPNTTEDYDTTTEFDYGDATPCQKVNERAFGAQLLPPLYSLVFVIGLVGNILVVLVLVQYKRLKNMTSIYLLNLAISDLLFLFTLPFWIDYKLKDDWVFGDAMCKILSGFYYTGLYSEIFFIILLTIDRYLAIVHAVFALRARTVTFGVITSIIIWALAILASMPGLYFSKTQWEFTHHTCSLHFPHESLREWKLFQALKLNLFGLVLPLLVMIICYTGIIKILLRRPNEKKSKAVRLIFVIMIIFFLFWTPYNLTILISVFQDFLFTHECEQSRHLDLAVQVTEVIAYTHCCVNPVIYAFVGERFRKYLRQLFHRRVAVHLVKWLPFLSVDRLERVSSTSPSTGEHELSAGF", "assay": "CCR1 Eurofins-Panlabs selectivity data (BI)"}, "[18]": {"biological_target": "Sodium- and chloride-dependent GABA transporter 1 (Rattus norvegicus) (UniProt P23978)", "assay": "GABATRANS/RA Eurofins-Panlabs selectivity data (BI)", "details": "Compound concentration 10.0 uM"}}, "data": [{"smiles": "CS(=O)(=O)NCC[C@H](NC(=O)c1cncc2c1cnn2-c1ccc(F)cc1)c1ccnc(S(C)(=O)=O)c1", "note": "[BI 9307]", "values": [{"measurement": "inhibition", "setting": "[1]", "result": -0.86, "unit": "%"}, {"measurement": "residual activity", "setting": "[2]", "result": 100, "unit": "%"}, {"measurement": "IC50", "setting": "[3]", "result": "> 3000 nM (not active)"}, {"measurement": "residual activity", "setting": "[4]", "result": 100, "unit": "%"}]}, {"smiles": "CS(=O)(=O)c1cc(C2(NC(=O)c3cncc4c3cnn4-c3ccc(F)cc3)CC2)ccn1", "note": "[BI 639667]", "values": [{"measurement": "residual activity", "setting": "[5]", "result": 100, "unit": "%"}, {"measurement": "residual activity", "setting": "[6]", "result": 93, "unit": "%"}, {"measurement": "Ki", "setting": "[7]", "result": 1880, "unit": "nM"}, {"measurement": "residual activity", "setting": "[8]", "result": 98, "unit": "%"}, {"measurement": "residual activity", "setting": "[9]", "result": 96, "unit": "%"}, {"measurement": "residual activity", "setting": "[10]", "result": 81, "unit": "%"}, {"measurement": "residual activity", "setting": "[11]", "result": 93, "unit": "%"}, {"measurement": "residual activity", "setting": "[12]", "result": 55, "unit": "%"}, {"measurement": "residual activity", "setting": "[13]", "result": 86, "unit": "%"}, {"measurement": "residual activity", "setting": "[14]", "result": 100, "unit": "%"}, {"measurement": "residual activity", "setting": "[15]", "result": 99, "unit": "%"}, {"measurement": "activity at 10 µM", "setting": "[16]", "result": "71% (not active)"}, {"measurement": "residual activity", "setting": "[17]; Compound concentration 0.03 uM", "result": 72, "unit": "%"}, {"measurement": "residual activity", "setting": "[17]; Compound concentration 0.1 uM", "result": 52, "unit": "%"}, {"measurement": "residual activity", "setting": "[17]; Compound concentration 0.3 uM", "result": 33, "unit": "%"}, {"measurement": "residual activity", "setting": "[17]; Compound concentration 1.0 uM", "result": 17, "unit": "%"}, {"measurement": "residual activity", "setting": "[17]; Compound concentration 3.0 uM", "result": 7.5, "unit": "%"}, {"measurement": "residual activity", "setting": "[17]; Compound concentration 10.0 uM", "result": 3, "unit": "%"}, {"measurement": "residual activity", "setting": "[18]", "result": 89, "unit": "%"}]}]}
